Laboratory results published in patent US20050261194A1, “Use of thymulin-like peptides for making pain-relieving medicines” (priority 2001, published 2005).

Tested on: rats
Test: Localized inflammatory hyperalgesia induced by intraplantar injection of endotoxin (ET); PP, PI, HP, TF pain tests
Type: in vivo, rat
Protocol: The experiments were conducted using adult, male Sprague-Dewless rats weighing between 200 and 250 g. The animals were reared under optimum conditions of light and temperature (12 h light and shadow cycle; 22±3° C.). Food and water were dispensed ad libitum. All of the experiments were conducted in compliance with the ethical directives relative to pain experiments done on animals in the conscious state (Zimmermann M., 1983, Ethical guidelines for investigations of experimental pain in conscious animals, Pain, 16:109-110) and they were approved by the Institutional Review Board for animal care.
Thermal and mechanical pain tests were done over a period of 3 consecutive days prior to the injections, in order to establish a baseline.
The mechanical nociceptive threshold was determined by the mechanical paw pressure test (PP), while that of the thermal nociceptive threshold was determined using the hot-plate (HP), the paw immersion in hot water (PI) and the tail flick (TF) tests.
The PP test is done by applying a constant pressure of 0.20 g/cm^2 alternatingly to the left and right hind paws in an interval of 5 minutes between 2 consecutive pressure applications.
In the HP test, the animals are placed individually on a hot plate (52.5° C.±0.3° C.). The pain threshold is measured by the latency period lapsed between the moment, at which the animal is placed on the hot plate and the first sign of pain, indicated by the fact that the animal licks the paw or jumps.
In the PI test, the hind paws are wetted alternately in distilled water at 48° C. and the latency time lapsed until the first sign of withdrawal of the paw is noted.
In the TF test, the tail of each animal is immersed in distilled water at 50.5° C. The latency time taken by the animal to withdraw it is noted. The results are based on 3 consecutive trials done in 5 minute intervals.
In the so-called localized model, the rats received on intraplantar injection of a solution (1.25 μg in 50 μl of […]) of endotoxin (Salmonella typhasa lipopolysaccharides, Sigma) into one of the hind paws, which induces both thermal and mechanical hyperalgesia restricted to the paw having received the injection.
Various treatments are then possible • Protocol 1(a): different groups of rats (n=5 in each group) were treated with the analogue peptide (TAP) Glu-Ala-lys-Ser-Gln-Gly-Gly-Ser-Asp (synthesized by Quantum Biotechnologies, Inc., Canada), in the following fashion : • either, they received one intraperitoneal injection (25 μg in 50 μl of physiological saline solution) of this peptide; • or, they were pretreated with different doses of this peptide (1.5 and 25 μg in 50 μl of sodium chloride) by intraperitoneal injection, 30 minutes prior to injection of endotoxins (ET) (1.25 μg in 50 μl of physiological saline solution by intraplantar injection). • Protocol 1(b): other experiments looked at comparing the efficacy of the analog peptides with that of steroids, NSAIDs and peptides known for their antagonism of the hyperalgesia induced by IL-1β and the prostaglandins.
One group of rats was pretreated with intraperitoneal injections of Lys-D-Pro-Thr (10 mg/kg) in 100 μl of physiological saline solution, 30 minutes prior to injection of TAP. This tripeptide is know for its antagonism of the hyperalgesia induced by IL-1β only.
In the second group, the rats received intraperitoneal injections of the Lys-D-Pro-Val tripeptide (10 mg/kg) in 100 μl of saline solution, 30 minutes prior to the injection of TAP. Lys-D-Pro-Val is an antagonist of the hyperalgesia induced by IL-1β and PEG2.
A third and a fourth group were treated with dexamethasone and indomethacin.
Dexamethasone phosphate dissolved in a […] sodium solution was injected, at a concentration of 200 μg/kg, just before and 3 hours after the injection of ET. […]

## Glu-Ala-lys-Ser-Gln-Gly-Gly-Ser-Asp (SQGGSD; N-terminal Glu-Ala-Lys; printed: Ser-Gln-Gly-Gly-Ser-Asp) [TAP]
ET 1.25 μg intraplantar, indomethacin 4 mg/kg, dexamethasone 200 μg/kg, FIG. 2
  effect compared with indomethacin and dexamethasone: effects similar to those of indomethacin and dexamethasone but at much lower concentrations
ET 1.25 μg intraplantar, tripeptides 10 mg/kg i.p., FIG. 2
  analgesic efficacy compared with Lys-D-Pro-Val and Lys-D-Pro-Thr peptides: much more efficacious analgesic agent
TAP 25 μg i.p. 30 min before ET 1.25 μg intraplantar, 9 h after ET, ET alone 0.87±0.09 s, saline 2.06±0.06 s
  latency, paw pressure (PP) test: 2.05 ± 0.07 s
TAP 25 μg i.p. 30 min before ET 1.25 μg intraplantar, 9 h after ET, ET alone 1.25±0.04 s, saline 1.97±0.05 s
  latency, paw immersion (PI) test: 1.94 ± 0.005 s
TAP 25 μg i.p. 30 min before ET 1.25 μg intraplantar, 9 h after ET, ET alone 2.40±0.06 s, saline 3.19±0.08 s
  latency, tail flick (TF) test: 3.22 ± 0.09 s
TAP 25 μg i.p. 30 min before ET 1.25 μg intraplantar, 9 h after ET, ET alone 6.0±0.18, saline 9.24±0.16 s
  latency, hot-plate (HP) test: 9.12 ± 0.7 s
TAP 1.5 and 25 μg i.p. pretreatment, FIG. 1
  effect on hyperalgesia induced by intraplantar ET: reduced in dose-dependent fashion the hyperalgesia
TAP alone 25 μg in 50 μl saline i.p., no ET
  change in latency time in the pain tests, TAP alone: did not result in significant change in the latency time
